Columns and labels:
[1] = biological target: Brd2(1) Leu110-Ile (Homo sapiens, UniProt P25440, L110I); experiment: DSF thermal shift; type: binding; design: Plasmids of the eight single BET bromodomain constructs Brd2(1), Brd2(2), Brd3(1), Brd3(2); His6 (N); made in house; host or cells: E. coli BL21(DE3); conditions: mutant
[2] = biological target: Brd2(2) Leu383-Ile (Homo sapiens, UniProt P25440, L383I); experiment: DSF thermal shift; type: binding; design: Plasmids of the eight single BET bromodomain constructs Brd2(1), Brd2(2), Brd3(1), Brd3(2); His6 (N); made in house; host or cells: E. coli BL21(DE3); conditions: mutant
[3] = biological target: T1, brdt(1)L063A (Homo sapiens, UniProt Q58F21, L63A); experiment: DSF thermal shift; type: binding; conditions: mutant
T1 construct: Plasmids of the eight single BET bromodomain constructs Brd2(1), Brd2(2), Brd3(1), Brd3(2), Brd4(1), Brd4(2), Brdt(1) and Brdt(2); His6 (N); made in house; host or cells: E. coli BL21(DE3)

[4] = system: Brd2(1) and (2) wild type and leucine to alanine, valine and isoleucine mutants; experiment: DSF thermal stabilization (FIG. 15); type: binding, human; conditions: result in words
Experimental: DSF assays were performed on a LightCycler®480 from Roche or a Mx3005P Real Time PCR machine from Stratagene. […] SYPRO®Orange from Invitrogen Molecular Probes® was used as a reporter dye to monitor the denaturing process of the proteins. Samples were assayed on a 96-well plate with final protein concentrations of 2 μM for the LightCycler®480 and 6 μM for Mx3005P. Compounds were added at a final concentration of 10 μM for the LightCycler®480 and 30 μM for Mx3005P, while the tetra acetylated histone peptide was added to a final concentration of 100 μM and 300 μM respectively. […] The temperature was raised with a step of 0.6° C. per minute from 37° C. to 95° C. with the LightCycler®480 collecting 39 measurements per ° C., and 1° C. per minute from 25° C. to 95° C. with Mx3005P, collecting fluorescence readings at the end of each interval. Each sample was run in triplicates.
Collected data was analysed by IGOR Pro 6, a scientific software tool from Wave Metrics, Inc. Analysis was done following the recommendations of Niesen et al.. Fluorescence intensity was plotted as a function of temperature, generating a sigmoidal curve described by a two-state transition from folded to unfolded protein. Curves were fitted by the following sigmoidal equation: […]
A1 and A2 are the values of minimum and maximum intensities, respectively, x0 is the inflection point and dx is the rate. Fitted curves were differentiated in IGOR Pro 6 and the maximum of the first derivative was identified using the same program. These values correspond to the inflection points of the transition curves and thus to the melting temperatures of the proteins (Tm).

[5] = biological target: T2, Brd3(1) (Homo sapiens, UniProt Q15059); experiment: DSF thermal shift; type: binding; conditions: wild type
T2 construct: Plasmids of the eight single BET bromodomain constructs Brd2(1), Brd2(2), Brd3(1), Brd3(2); His6 (N); made in house; host or cells: E. coli BL21(DE3)

[6] = biological target: T3, brdt(2)L306A (Homo sapiens, UniProt Q58F21, L306A); experiment: DSF thermal shift; type: binding; conditions: mutant
T3 construct: Plasmids of the eight single BET bromodomain constructs Brd2(1), Brd2(2), Brd3(1), Brd3(2), Brd4(1), Brd4(2), Brdt(1) and Brdt(2); His6 (N); made in house; host or cells: E. coli BL21(DE3)

[7] = biological target: T4, Brdt(2) (Homo sapiens, UniProt Q58F21); experiment: DSF thermal shift; type: binding; conditions: wild type
T4 construct: Plasmids of the eight single BET bromodomain constructs Brd2(1), Brd2(2), Brd3(1), Brd3(2), Brd4(1), Brd4(2), Brdt(1) and Brdt(2); His6 (N); made in house; host or cells: E. coli BL21(DE3)

[8] = biological target: T5, Brd2(2) (Homo sapiens, UniProt P25440); experiment: DSF thermal shift; type: binding; conditions: wild type
T5 construct: Plasmids of the eight single BET bromodomain constructs Brd2(1), Brd2(2), Brd3(1), Brd3(2); His6 (N); made in house; host or cells: E. coli BL21(DE3)

[9] = biological target: T6, Brd3(2) (Homo sapiens, UniProt Q15059); experiment: DSF thermal shift; type: binding; conditions: wild type
T6 construct: Plasmids of the eight single BET bromodomain constructs Brd2(1), Brd2(2), Brd3(1), Brd3(2), Brd4(1), Brd4(2), Brdt(1) and Brdt(2); His6 (N); made in house; host or cells: E. coli BL21(DE3)

[10] = biological target: T7, Brdt(1) (Homo sapiens, UniProt Q58F21); experiment: DSF thermal shift; type: binding; conditions: wild type
T7 construct: Plasmids of the eight single BET bromodomain constructs Brd2(1), Brd2(2), Brd3(1), Brd3(2), Brd4(1), Brd4(2), Brdt(1) and Brdt(2); His6 (N); made in house; host or cells: E. coli BL21(DE3)

[11] = biological target: T8, Brd2(1) (Homo sapiens, UniProt P25440); experiment: DSF thermal shift; type: binding; conditions: wild type
T8 construct: Plasmids of the eight single BET bromodomain constructs Brd2(1), Brd2(2), Brd3(1), Brd3(2); His6 (N); made in house; host or cells: E. coli BL21(DE3)
T8 sequence (P25440 74-180 limits assumed): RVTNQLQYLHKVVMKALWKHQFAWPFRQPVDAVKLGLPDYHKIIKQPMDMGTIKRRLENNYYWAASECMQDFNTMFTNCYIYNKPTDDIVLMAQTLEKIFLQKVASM

Sequence of Brd2(2) Leu383-Ile (P25440 344-453 L383I limits assumed): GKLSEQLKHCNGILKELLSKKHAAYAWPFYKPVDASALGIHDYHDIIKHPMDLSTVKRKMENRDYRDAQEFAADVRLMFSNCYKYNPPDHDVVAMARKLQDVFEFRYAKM
Sequence of Brd2(1) Leu110-Ile (P25440 74-180 L110I limits assumed): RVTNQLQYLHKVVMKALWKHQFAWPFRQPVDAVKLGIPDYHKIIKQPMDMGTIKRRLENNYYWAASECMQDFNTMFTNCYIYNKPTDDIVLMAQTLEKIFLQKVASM
T5 sequence (P25440 344-453 limits assumed): as the sequence (P25440 344-453 L383I limits assumed) above, with I40L counted along it
T6 sequence (Q15059 306-415 limits assumed): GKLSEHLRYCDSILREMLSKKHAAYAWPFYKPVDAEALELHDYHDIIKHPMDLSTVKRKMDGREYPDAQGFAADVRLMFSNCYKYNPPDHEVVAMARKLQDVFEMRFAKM
T2 sequence (Q15059 34-140 limits assumed): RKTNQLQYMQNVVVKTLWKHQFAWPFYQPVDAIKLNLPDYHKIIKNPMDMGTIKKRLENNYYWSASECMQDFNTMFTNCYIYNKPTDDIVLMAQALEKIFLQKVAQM

| SMILES | Thermal stabilisation brd2(1)L110I [1] [°C] | ΔTm Brd2(1)*(Leu110-Ile) [1] [K] | Thermal stabilisation brd2(1)L110I ([1]; listed as compound 7) [°C] | Thermal stabilisation brd2(2)V383I (Table 1); Brd2(2) Leu383-Ile (text) [2] [°C] | ΔTm Brd2(2)*(Leu383-Ile) [2] [K] | Thermal stabilisation brd2(2)V383I (Table 1); Brd2(2) Leu383-Ile (text) ([2]; listed as compound 7) [°C] | ΔTm Brdt(1)* (L063A) [3] [K] | Thermal stabilization of Brd2 mutants versus wild types (FIG. 15) [4] | ΔTm Brd3(1) [5] [K] | ΔTm Brdt(2)* (L306A) [6] [K] | ΔTm Brdt(2) [7] [K] | Thermal stabilisation brd2(2) [8] [°C] | ΔTm Brd2(2) [8] [K] | Thermal stabilisation brd2(2) ([8]; listed as compound 7) [°C] | ΔTm Brd3(2) [9] [K] | ΔTm Brdt(1) [10] [K] | Thermal stabilisation brd2(1) [11] [°C] | ΔTm Brd2(1) [11] [K] | Thermal stabilisation brd2(1) ([11]; listed as compound 7) [°C] |
| --- | --- | --- | --- | --- | --- | --- | --- | --- | --- | --- | --- | --- | --- | --- | --- | --- | --- | --- | --- |
| COC(=O)[C@H](C)[C@@H]1N=C(c2ccc(Cl)cc2)c2cc(OC)ccc2-n2c(C)nnc21 (racemic) [Compound 7, (+−)-methyl (R)-2-((S)-6-(4-chlorophenyl)-8-methoxy-1-methyl-4H-benzo[f][1,2,4]triazolo[4,3-a][1,4]diazepin-4-yl)propanoate] | 5.7 ± 0.7 | 5.7 ± 0.7 | 5.7 | 9.6 ± 0.1 | 9.6 ± 0.1 | 9.6 | 5.8 ± 0.3 | increased thermal shifts of the leucine to alanine mutants | 5.9 ± 0.2 | 7.9 ± 0.2 | 3.7 ± 0.3 | 5.6 ± 0.1 | 5.6 ± 0.1 | 5.6 | 6.7 ± 1.0 | 5.3 ± 0.3 | 3.2 ± 0.2 | 3.2 ± 0.2 | 3.2 |
| CC[C@@H](C(=O)OC)[C@@H]1N=C(c2ccc(Cl)cc2)c2cc(OC)ccc2-n2c(C)nnc21 (racemic) [Compound 11, (+−)-methyl (R)-2-((S)-6-(4-chlorophenyl)-8-methoxy-1-methyl-4H-benzo[f][1,2,4]triazolo[4,3-a][1,4]diazepin-4-yl)butanoate] | – | – | – | – | – | – | 5.4 ± 0.3 | increased thermal shifts of the leucine to alanine mutants | 2.2 ± 0.1 | 6.7 ± 0.4 | 1.3 ± 0.3 | – | 1.6 ± 0.1 | – | 2.6 ± 0.7 | 1.5 ± 0.4 | – | 1.2 ± 0.2 | – |
